For 7 molecules, EC50 and Ki results are on record in patent publication US9346815B2, “5-chloro-2-difluoromethoxyphenyl pyrazolopyrimidine compounds, compositions and methods of use thereof” (Genentech, Inc., priority 2014, dated 2016).

The test system of assay [1] is JAK1-dependent STAT6 phosphorylation downstream of IL-13 stimulation in TF-1 human erythroleukemia cells. Put plainly: JAK1 pathway assay in TF-1 cells (IL-13-pSTAT6, MSD). Conditions: Homo sapiens, TF-1, TF-1 cells, read-out: IL13-pSTAT6 EC50_TF-1. It is filed as cell-based. The gist of the method: (§1)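 Inhibitors were added to TF-1 cells (GM-CSF-starved, serum-free) for 30 min or to BEAS-2B cells (complete medium) for 1 hr at 37° C. MSD detected pSTAT6.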

Assay [2] deals with isolated recombinant JAK2 kinase domain (Homo sapiens (Human), UniProt O60674). Put plainly: JAK2 enzyme assay (Caliper LabChip, peptide phosphorylation). In kind it is biochemical. Conditions: 25 μM ATP.
The subject of assay [3] is JAK1-dependent STAT6 phosphorylation downstream of IL-13 stimulation in BEAS-2B human bronchial epithelial cells. Put plainly: JAK1 pathway assay in BEAS-2B cells (IL-13-pSTAT6, MSD). It is filed as cell-based. Conditions: read-out: IL13-pSTAT6 EC50 (uM)_BEAS-2B. The gist of the method:
as §1

For assay [4], the target named is isolated recombinant JAK1 kinase domain (Homo sapiens (Human), UniProt P23458). The assay is described as follows: JAK1 enzyme assay (Caliper LabChip, peptide phosphorylation). In kind it is biochemical. Conditions: isolated recombinant JAK1 kinase domain, 25 μM ATP.
isolated recombinant JAK1 kinase domain, sequence (P23458 875-1153): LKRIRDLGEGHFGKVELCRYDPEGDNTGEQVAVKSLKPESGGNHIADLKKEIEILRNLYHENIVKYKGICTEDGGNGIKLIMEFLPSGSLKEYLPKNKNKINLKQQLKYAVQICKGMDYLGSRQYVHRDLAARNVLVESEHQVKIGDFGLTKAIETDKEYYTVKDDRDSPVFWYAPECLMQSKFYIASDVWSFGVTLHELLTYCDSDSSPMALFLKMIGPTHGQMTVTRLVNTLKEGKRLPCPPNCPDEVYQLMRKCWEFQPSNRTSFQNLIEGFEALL

isolated recombinant JAK2 kinase domain, sequence (O60674 849-1124): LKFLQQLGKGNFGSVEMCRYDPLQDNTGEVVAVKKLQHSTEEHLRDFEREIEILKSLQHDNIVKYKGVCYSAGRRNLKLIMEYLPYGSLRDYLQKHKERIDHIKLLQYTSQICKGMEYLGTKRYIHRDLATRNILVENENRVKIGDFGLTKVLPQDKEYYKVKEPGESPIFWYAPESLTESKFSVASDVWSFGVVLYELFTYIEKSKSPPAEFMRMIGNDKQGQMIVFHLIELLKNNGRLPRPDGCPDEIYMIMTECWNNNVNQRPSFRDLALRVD

As to `O=C(Nc1cn(CC(=O)N2C[C@H]3CN(CC4CCCCC4)C[C@H]3C2)nc1-c1cc(Cl)ccc1OC(F)F)c1cnn2cccnc12` [Example 52, N-[1-[2-[(3aR,6aS)-2-(cyclohexylmethyl)-1,3,3a,4,6,6a-hexahydropyrrolo[3,4-c]pyrrol-5-yl]-2-oxo-ethyl]-3-[5-chloro-2-(difluoromethoxy)phenyl]pyrazol-4-yl]pyrazolo[1,5-a]pyrimidine-3-carboxamide], the EC50 in assay [1] was found to be 5.4 nM; in assay [3], 0.0388 µM. For the same molecule, the Ki (usually a measure of affinity in units of concentration, obtained from inhibition or displacement) is 0.62 nM in assay [2] and 0.65 nM in assay [4].
As to `CN1CC[C@@H]2[C@H](CCN2C(=O)Cn2cc(NC(=O)c3cnn4cccnc34)c(-c3cc(Cl)ccc3OC(F)F)n2)C1` [Example 61, N-[1-[2-[(3aR,7aR)-5-methyl-3,3a,4,6,7,7a-hexahydro-2H-pyrrolo[3,2-c]pyridin-1-yl]-2-oxo-ethyl]-3-[5-chloro-2-(difluoromethoxy)phenyl]pyrazol-4-yl]pyrazolo[1,5-a]pyrimidine-3-carboxamide], the EC50 in assay [1] turned out to be 27.5 nM; in assay [3], 0.0324 µM. For the same molecule, the Ki in assay [2] stood at 0.68 nM; in assay [4] it was 0.23 nM.
With `CN1CC[C@H]2[C@@H](CCN2C(=O)Cn2cc(NC(=O)c3cnn4cccnc34)c(-c3cc(Cl)ccc3OC(F)F)n2)C1` [Example 62, N-[1-[2-[(3aS,7aS)-5-methyl-3,3a,4,6,7,7a-hexahydro-2H-pyrrolo[3,2-c]pyridin-1-yl]-2-oxo-ethyl]-3-[5-chloro-2-(difluoromethoxy)phenyl]pyrazol-4-yl]pyrazolo[1,5-a]pyrimidine-3-carboxamide], the EC50 came to 55.8 nM in assay [1] and 0.0892 µM in assay [3]. Further, the Ki in assay [2] came to 2.68 nM; in assay [4], 2.07 nM.
Consider `CNC1CCN(C(=O)Cn2cc(NC(=O)c3cnn4cccnc34)c(-c3cc(Cl)ccc3OC(F)F)n2)CC1` [Example 83, N-[3-[5-chloro-2-(difluoromethoxy)phenyl]-1-[2-[4-(methylamino)-1-piperidyl]-2-oxo-ethyl]pyrazol-4-yl]pyrazolo[1,5-a]pyrimidine-3-carboxamide], for which the EC50 is 42.3 nM in assay [1] and 0.143 µM in assay [3]. Moreover, the Ki in assay [2] came out at 1.59 nM; in assay [4], 1.07 nM.
As for `N#CCCNC1CCN(C(=O)Cn2cc(NC(=O)c3cnn4cccnc34)c(-c3cc(Cl)ccc3OC(F)F)n2)CC1` [Example 87, N-[3-[5-chloro-2-(difluoromethoxy)phenyl]-1-[2-[4-(2-cyanoethylamino)-1-piperidyl]-2-oxo-ethyl]pyrazol-4-yl]pyrazolo[1,5-a]pyrimidine-3-carboxamide], the EC50 in assay [1] turned out to be 15.4 nM; in assay [3], 0.014 µM. Also, the values for the Ki in assay [2] and in assay [4] were 0.73 nM and 0.4 nM, respectively.
For `CN(CCc1ccc(Cl)cc1)C1CCN(C(=O)Cn2cc(NC(=O)c3cnn4cccnc34)c(-c3cc(Cl)ccc3OC(F)F)n2)CC1` [Example 94, N-[3-[5-chloro-2-(difluoromethoxy)phenyl]-1-[2-[4-[2-(4-chlorophenyl)ethyl-methyl-amino]-1-piperidyl]-2-oxo-ethyl]pyrazol-4-yl]pyrazolo[1,5-a]pyrimidine-3-carboxamide], in that order: 42.4 nM, 0.0931 µM, 2.07 nM and 1.2 nM.
On to `Cc1ccc(OCCN(C)C2CCN(C(=O)Cn3cc(NC(=O)c4cnn5cccnc45)c(-c4cc(Cl)ccc4OC(F)F)n3)CC2)cc1` [Example 110, N-[3-[5-chloro-2-(difluoromethoxy)phenyl]-1-[2-[4-[methyl-[2-(4-methylphenoxy)ethyl]amino]-1-piperidyl]-2-oxo-ethyl]pyrazol-4-yl]pyrazolo[1,5-a]pyrimidine-3-carboxamide], for which the figures for the EC50 in assay [1] and in assay [3] were 8.9 nM and 0.0875 µM, respectively. Further, the Ki in assay [2] was determined as 2.03 nM; in assay [4], 1.04 nM.
